# Assay results from patent US12729381B2, “Methods and compositions for inactivating interleukin-2-inducible t-cell kinase (ITK)” (priority 2020, dated 2026).
# Non-standard residues stand in square brackets, D forms with d. No end group written: not given here. *: point of attachment. FITC = O=C1OC2(c3ccc(O)cc3Oc3cc(O)ccc32)c2ccc(NC(=S)*)cc21; pY = N[C@@H](Cc1ccc(OP(=O)(O)O)cc1)C(=O)O
# System: GVHD and B-ALL-luc tumor cells
# Test: Allo-HSCT GVHD/GVL model with donor T cells transduced with SLP76pTYR-pCherry virus
# Format: in vivo, BALB/c mice
# Conditions: murine allo-HSCT major mismatch model
# Method: GVHD and GVL studies: Recipient BALB/c mice (MHC haplotype d) as recipients were lethally irradiated with 800 cGy total in two split doses of 400cGy. Bone marrow cells were harvested from mouse legs, and total bone marrow cells were incubated with CD90.2 beads, using 100 ul of beads per mouse according to manufacturer protocols. NK cells were depleted and by DX5 beads, and CD122+ cells with anti PE beads. Recipient mice were injected intravenously with 10×10^6 T cell-depleted bone marrow (TCDBM) cells, with or without donor T cells, either 1×10^6 or 2×10^6 FACS-sorted CD8^+, CD4^+ T cells, or CD8^+ and CD4^+ cells mixed at a 1:1 ratio from WT or SLP76 Y145FKI mice. For GVL experiments, primary B cell acute lymphoblastic leukemia (B-ALL, syngeneic to BALB/c and allogeneic to C57BI/6) blasts were transduced with luciferase as described previously (Cheng et al., 2016), and 2×10^5 luciferase-expressing B-ALL-luc cells were used per recipient mouse unless otherwise specified. […] The bioluminescence data were analyzed and quantified with Living Image Software (Xenogen) and Igor Pro (Wave Metrics, Lake Oswego, OR). Recipient animals were evaluated for clinical score 2-3 times per week by a scoring system that sums changes in 6 clinical parameters: (1) weight loss, (2) posture, (3) activity, (4) fur texture, (5) diarrhea and (6) skin integrity (Cooke et al., 1996). […]
substance,measurement,setting,value
FITC Dye ^132NEEEEAPVEDDADpYEPPPSNDEEA^155-TAT ({FITC}-NEEEEAPVEDDAD[pY]EPPPSNDEEAGRKKRRQRRRPQ) [SLP76pTYR],GVHD and GVL outcome (summary statement),,tumor clearance without inducing GVHD
same,GVHD and GVL outcome (summary statement),listed as SLP76145pTYR,significantly reduced GVHD pathophysiology but maintained GVL function
